From ChEMBL document CHEMBL1926602, “Anisotropy studies of tRNA-T box antiterminator RNA complex in the presence of 1,4-disubstituted 1,2,3-triazoles” (Bioorg Med Chem Lett, 2011) come the findings set out here.

The subject of the first assay is Nucleic Acid. Nature of the assay: Inhibition of A73U tRNA(Tyr)-5'Rhd-AM1A T box antiterminator RNA complex assessed as reduction in anisotrophy changes by at 100 uM by fluorescence anisotropy-based assay relative to untreated control. The class given is nucleic-acid assay.
Turning to `CCCCC(O)Cn1cc(CN2CCOCC2)nn1` (stereo not given), the inhibition turned out to be 0%. For the molecule `CCOC(=O)C1CCCN(Cc2cn(C3CCCCC3O)nn2)C1` (stereo not given), the inhibition was found to be 16%. In the case of `O=C(NCc1ccccc1)OCC(O)Cn1cc(CN2CCN(c3ccccc3)CC2)nn1` (stereo not given), the inhibition is 32%. The same measure, in the same setting: then `CCCCNC(=O)OCC(O)Cn1cc(CN2CCOCC2)nn1` (stereo not given), with 5%; and `OC1CCCCC1n1cc(CN2CCN(c3ccccc3)CC2)nn1` (stereo not given), with 47%. In the case of `CCCCC(O)Cn1cc(CN(C)CC2CCCCC2)nn1` (stereo not given), the inhibition turned out to be 47%. For `CN(CCCc1ccccc1)Cc1cn(C2CCCCC2OC(=O)COc2ccccc2)nn1` (stereo not given), the inhibition stood at 42%. For the molecule `CCCCNC(=O)OCC(O)Cn1cc(CN(C)CCC(C)C)nn1` (stereo not given), the inhibition is 24%. For `CCCCCCCC(=O)OCC(O)Cn1cc(CN(CCCC)CCCC)nn1` (stereo not given), the inhibition turned out to be 71%. Still for that read-out and setting: then `CN(Cc1cn(C2CCCCC2OC(=O)c2ccccc2)nn1)CC1CCCCC1` (stereo not given), with 32%.

In the case of `CC(C)CCN(C)Cc1cn(C2CCCCC2OC(=O)c2ccccc2)nn1` (stereo not given), the inhibition was found to be 26%. Turning to `CN(CCc1ccccc1)Cc1cn(C2CCCCC2OC(=O)COc2ccccc2)nn1` (stereo not given), the inhibition stood at 32%. Still for that read-out and setting: as for `CN(Cc1cn(CC(O)COC(=O)c2ccccc2)nn1)CC1CCCCC1` (stereo not given), the figure is 6%; as for `CC(C)CCN(C)Cc1cn(CC(O)c2ccccc2)nn1` (stereo not given), 58%. As for `CN(CCCc1ccccc1)Cc1cn(CC(O)COCc2ccccc2)nn1` (stereo not given), the inhibition turned out to be 18%. Take `CCCCN(CCCC)Cc1cn(C2CCCCC2O)nn1` (stereo not given): the inhibition was 32%. As for `CCCCN(CCCC)Cc1cn(C2CCCCC2OC(=O)COc2ccccc2)nn1` (stereo not given), the inhibition worked out at 26%. Consider `CCOC(=O)C1CCCN(Cc2cn(CC(O)COC(=O)NCc3ccccc3)nn2)C1` (stereo not given), for which the inhibition stood at 47%.

Turning to `O=C(OCC(O)Cn1cc(CN2CCOCC2)nn1)C1CCCCC1` (stereo not given), the inhibition amounted to 11%. On the same count and under the same terms, as for `CCCCC(O)Cn1cc(CN2CCN(c3ccccc3)CC2)nn1` (stereo not given), the figure is 47%; as for `CCCCCCCC(=O)OCC(O)Cn1cc(CN2CCN(c3ccccc3)CC2)nn1` (stereo not given), 26%; as for `CN(CCc1ccccc1)Cc1cn(CC(O)COC(=O)c2ccccc2)nn1` (stereo not given), 0%. Take `CCOC(=O)C1CCCN(Cc2cn(CC(O)COC(=O)c3ccccc3)nn2)C1` (stereo not given): the inhibition stood at 6%. For the molecule `CC(C)CCN(C)Cc1cn(CC(O)COC(=O)C2CCCCC2)nn1` (stereo not given), the inhibition amounted to 0%.

Consider `OC(Cn1cc(CN2CCN(c3ccccc3)CC2)nn1)c1ccccc1` (stereo not given), for which the inhibition worked out at 32%.

For `CN(CCCc1ccccc1)Cc1cn(CC(O)COC(=O)c2ccccc2)nn1` (stereo not given), the inhibition was determined as 12%.

Turning to `OC(COCc1ccccc1)Cn1cc(CN2CCN(c3ccccc3)CC2)nn1` (stereo not given), the inhibition worked out at 37%. In the case of `CN(CCc1ccccc1)Cc1cn(CC(O)COCc2ccccc2)nn1` (stereo not given), the inhibition is 18%. Turning to `CCCCN(CCCC)Cc1cn(CC(O)COCc2ccccc2)nn1` (stereo not given), the inhibition amounted to 6%. Consider `CC(C)CCN(C)Cc1cn(CC(O)COC(=O)c2ccccc2)nn1` (stereo not given), for which the inhibition was 0%. Regarding `CC(C)CCN(C)Cc1cn(CC(O)COC(=O)NCc2ccccc2)nn1` (stereo not given), the inhibition was determined as 26%. As for `CCOC(=O)C1CCCN(Cc2cn(C3CCCCC3OC(=O)COc3ccccc3)nn2)C1` (stereo not given), the inhibition was 21%. For `CN(Cc1cn(CC(O)COC(=O)NCc2ccccc2)nn1)CC1CCCCC1` (stereo not given), the inhibition is 32%. Turning to `CCCCNC(=O)OCC(O)Cn1cc(CN2CCN(c3ccccc3)CC2)nn1` (stereo not given), the inhibition came out at 11%. As to `CCCCC(O)Cn1cc(CN(C)CCC(C)C)nn1` (stereo not given), the inhibition was found to be 47%. Consider `CN(CCc1ccccc1)Cc1cn(CC(O)COC(=O)NCc2ccccc2)nn1` (stereo not given), for which the inhibition was 42%. For `CN(Cc1cn(C2CCCCC2O)nn1)CC1CCCCC1` (stereo not given), the inhibition turned out to be 47%. Consider `OC1CCCCC1n1cc(CN2CCC(c3ccccc3)CC2)nn1` (stereo not given), for which the inhibition worked out at 42%. Same read-out and setting: as for `CN(CCc1ccccc1)Cc1cn(C2CCCCC2O)nn1` (stereo not given), the figure is 21%; as for `CN(CCCc1ccccc1)Cc1cn(CC(O)COC(=O)NCc2ccccc2)nn1` (stereo not given), 79%; as for `CCCCNC(=O)OCC(O)Cn1cc(CN(C)CC2CCCCC2)nn1` (stereo not given), 12%.

Take `CCCCC(O)Cn1cc(CN2CCC(c3ccccc3)CC2)nn1` (stereo not given): the inhibition stood at 16%. Take `O=C(NCc1ccccc1)OCC(O)Cn1cc(CN2CCC(c3ccccc3)CC2)nn1` (stereo not given): the inhibition was found to be 29%.

Turning to `CN(Cc1cn(CC(O)COC(=O)C2CCCCC2)nn1)CC1CCCCC1` (stereo not given), the inhibition amounted to 18%. With `CC(C)CCN(C)Cc1cn(C2CCCCC2OC(=O)COc2ccccc2)nn1` (stereo not given), the inhibition worked out at 59%. Turning to `CCCCN(CCCC)Cc1cn(CC(O)COC(=O)C2CCCCC2)nn1` (stereo not given), the inhibition is 12%.

Consider `CCCCN(CCCC)Cc1cn(CC(O)COC(=O)c2ccccc2)nn1` (stereo not given), for which the inhibition came to 12%.

For the molecule `O=C(COc1ccccc1)OC1CCCCC1n1cc(CN2CCOCC2)nn1` (stereo not given), the inhibition stood at 5%.

With `CCCCC(O)Cn1cc(CN(C)CCc2ccccc2)nn1` (stereo not given), the inhibition came to 29%.

With `CCCCCCCC(=O)OCC(O)Cn1cc(CN2CCOCC2)nn1` (stereo not given), the inhibition worked out at 0%.

Turning to `CCCCCCCC(=O)OCC(O)Cn1cc(CN(C)CCCc2ccccc2)nn1` (stereo not given), the inhibition turned out to be 12%.

On to `CN(Cc1cn(CC(O)COCc2ccccc2)nn1)CC1CCCCC1` (stereo not given), for which the inhibition was 6%. Still for that read-out and setting: then `CN(Cc1cn(C2CCCCC2OC(=O)COc2ccccc2)nn1)CC1CCCCC1` (stereo not given), with 37%. As for `O=C(OC1CCCCC1n1cc(CN2CCN(c3ccccc3)CC2)nn1)c1ccccc1` (stereo not given), the inhibition was found to be 21%.

On to `O=C(COc1ccccc1)OC1CCCCC1n1cc(CN2CCC(c3ccccc3)CC2)nn1` (stereo not given), for which the inhibition stood at 42%. Regarding `CCOC(=O)C1CCCN(Cc2cn(CC(O)COCc3ccccc3)nn2)C1` (stereo not given), the inhibition was found to be 26%. Still for that read-out and setting: then `O=C(OC1CCCCC1n1cc(CN2CCC(c3ccccc3)CC2)nn1)c1ccccc1` (stereo not given), with 16%.

For the molecule `CN(Cc1cn(C2CCCCC2OC(=O)Cc2ccccc2)nn1)CC1CCCCC1` (stereo not given), the inhibition was 5%. With `CCCCC(O)Cn1cc(CN(CCCC)CCCC)nn1` (stereo not given), the inhibition was 18%. On to `CCOC(=O)C1CCCN(Cc2cn(C3CCCCC3OC(=O)c3ccccc3)nn2)C1` (stereo not given), for which the inhibition turned out to be 11%. In the case of `CCCCN(CCCC)Cc1cn(CC(O)COC(=O)NCc2ccccc2)nn1` (stereo not given), the inhibition was 42%.

`CC(C)CCN(C)Cc1cn(C2CCCCC2O)nn1` (stereo not given): the inhibition came to 42%. With `O=C(OCC(O)Cn1cc(CN2CCOCC2)nn1)c1ccccc1` (stereo not given), the inhibition was 5%.

In the case of `CCCCN(CCCC)Cc1cn(C2CCCCC2OC(=O)Cc2ccccc2)nn1` (stereo not given), the inhibition was 53%.

Turning to `CCOC(=O)C1CCCN(Cc2cn(C3CCCCC3OC(=O)Cc3ccccc3)nn2)C1` (stereo not given), the inhibition amounted to 21%.

With `CN(Cc1ccccc1)Cc1cn(CC(O)c2ccccc2)nn1` (stereo not given), the inhibition is 32%.

On to `O=C(COc1ccccc1)OC1CCCCC1n1cc(CN2CCN(c3ccccc3)CC2)nn1` (stereo not given), for which the inhibition was 37%. Take `CCCCC(O)Cn1cc(CN2CCCC(C(=O)OCC)C2)nn1` (stereo not given): the inhibition was 53%. For `CCCCNC(=O)OCC(O)Cn1cc(CN2CCCC(C(=O)OCC)C2)nn1` (stereo not given), the inhibition amounted to 24%.

As to `O=C(OCC(O)Cn1cc(CN2CCN(c3ccccc3)CC2)nn1)c1ccccc1` (stereo not given), the inhibition was 11%. Regarding `CCCCC(O)Cn1cc(CN(C)CCCc2ccccc2)nn1` (stereo not given), the inhibition was determined as 37%.

In the next assay the test system is Nucleic Acid. The experiment in a line: Stabilization of A73U tRNA(Tyr)-5'Rhd-AM1A T box antiterminator RNA complex assessed as increase in anisotrophy changes by at 100 uM by fluorescence anisotropy-based assay relative to untreated control. The class given is nucleic-acid assay.
Regarding `CCOC(=O)C1CCCN(Cc2cn(CC(O)c3ccccc3)nn2)C1` (stereo not given), the Activity stood at 6%.

`OC1CCCCC1n1cc(CN2CCOCC2)nn1` (stereo not given): the Activity turned out to be 24%.

Take `OC(COCc1ccccc1)Cn1cc(CN2CCOCC2)nn1` (stereo not given): the Activity is 12%. Still for that read-out and setting: then `O=C(Cc1ccccc1)OC1CCCCC1n1cc(CN2CCOCC2)nn1` (stereo not given), with 6%; and `CCCCNC(=O)OCC(O)Cn1cc(CN(CCCC)CCCC)nn1` (stereo not given), with 18%. Consider `CCOC(=O)C1CCCN(Cc2cn(CC(O)COC(=O)C3CCCCC3)nn2)C1` (stereo not given), for which the Activity is 6%. `OC(Cn1cc(CN2CCOCC2)nn1)c1ccccc1` (stereo not given): the Activity came out at 6%. Consider `O=C(OC1CCCCC1n1cc(CN2CCOCC2)nn1)c1ccccc1` (stereo not given), for which the Activity came to 6%.

For `CN(Cc1cn(CC(O)c2ccccc2)nn1)CC1CCCCC1` (stereo not given), the Activity was found to be 6%.
